The numbers were not newly measured in US6683076B2, “Methods for therapeutic use of glucosylceramide synthesis inhibitors and composition thereof” (Oxford Glyco-Sciences (UK) Ltd, priority 2000, dated 2004), which cites them from elsewhere.

For the series the following is noted: patients with Parkinson's disease, stroke and spinal cord injuries; cited from earlier work.

As to GM1 ganglioside, the Neurodegenerative processes entry was “seem to improve”.
